Here are results for 2 molecules from PMC8602723, “Comparative assessment of antimicrobial, antiradical and cytotoxic activities of cannabidiol and its propyl analogue cannabidivarin” (Scientific Reports, 2021).

Read-outs that look alike come from different tables or passages of the source.

Assay [1] relates to S. aureus. The arrangement: method as in PMID 33469147. The settings on record: S. aureus exposed at 6–14 µM; cited from earlier work.
A short description of assay [2]: DPPH assay (radical scavenging). The settings on record: for DPPH scavenging capacity less than the capacity of Trolox: compared with Trolox. As for the experimental part: DPPH assay was performed following the protocol described by Brand-Williams et al.[69]. DPPH^⋅ was dissolved in methanol, generating a purple solution (101.43 µM). […] Furthermore, 940 μL of methanol and 60 μL of distilled water were used for the blank. Trolox was used as the standard control, and methanol was used as the solvent control.
The results were expressed as the median effective concentration of sample able to reduce the initial absorbance of the DPPH radical (EC50). Furthermore, TEAC values were calculated in line with Shimamura end colleagues[68] as previously reported.
(§1) All results from five independent experiments are expressed as the IC50 or EC50 as determined by analysis with Prism 5 software (GraphPad Inc., San Diego, CA, USA) and nonlinear regression (log agonist vs. normalized response-variable slope) with a 95% confidence range. Lowest observed adverse effect concentrations (LOAECs) were calculated by one-way ANOVA and Dunnett’s comparison test. Differences compared to the controls were considered significant as follows: *p < 0.05, **p < 0.001 and ***p < 0.0001.
A general note: Loss of DPPH colour is used to gauge radical scavenging.

The subject of assay [3] is Escherichia coli (ATCC 13762). Put plainly: Microbial susceptibility test (growth inhibition). The format is cell-based. The settings on record: read-out: IC50 bacterial growth inhibition. On the procedure:
(§2) Escherichia coli (ATCC 13762) and S. aureus (ATCC 6538) were cultured overnight in tryptic soy broth and soybean-casein digestive medium (TSB, Oxoid, Milano, Italy) at 37 °C[70]. Subsequently, using 96-well plates (Sarstedt, Italy), 100 µL of TSB, 100 µL of CBD (5–160 µM, DF = 2) or CBDV (5.46–175 µM, DF = 2) and 100 µL of the bacterial culture corresponding to 1 × 10^4 CFU were added sequentially to each well. CBD and CBDV final concentrations in wells equal to 1.66–53 and 1.82–58.19 µM, respectively, were chosen on the basis of range-finding tests. TSB alone was used as the blank, physiologic solution (0.9% NaCl) was used as the negative control, methanol 5% v/v (final percentage in wells equal to 1.6% v/v) was used as the solvent control, and streptomycin at 60 µM (final concentration in the well equal to 20 µM) was used as the positive control. Experiments were conducted in sextuplicate. The plates were covered with sterile film to prevent evaporation and incubated at 37 °C. After 24, 48 and 72 h, the optical density of each well was recorded at 620 nm using a microplate reader. The bacterial growth inhibition percentage (IC%) was determined as follows:7 IC%=1-OD620testsample-OD620blank/OD620negativecontrol-OD620blank·100
as §1

For assay [4], the system named is S. aureus (ATCC 6538). Put plainly: Microbial susceptibility test (growth inhibition). The format is cell-based. Particulars: Staphylococcus aureus, read-out: IC50 bacterial growth inhibition. On the procedure:
as §2, §1

The subject of assay [5] is TelCOFS02MA cells. Briefly: LDH assay (plasma membrane damage). The format is cell-based, human. The settings on record: for IC50: Homo sapiens, read-out: IC50 LDH assay. On the procedure: LDH assay is a high-throughput method based on the release of the LDH cytoplasmic enzyme from the cytosol into the extracellular space when the plasma membrane is damaged[29],[30]. Plasma membrane damage related to the amount of lysed cells was monitored by LDH assay, and the results were used for indirectly detecting the necrosis correlated to the leakage of the cytosolic enzyme due the loss of membrane permeability control[29],[30]. This assay was performed with the protocol described by Lehmann and colleagues.
Briefly, 1 × 10^4 A549 and Caco-2 cells and 2 × 10^4 HepG2, MDA-MB-231 and TelCOFS02MA cells were seeded in 100 µL of 1% FBS-fresh medium in each well of 96-well plates and incubated for 24 h at 37 °C with 95% humidity and 5% CO2. Then, the medium was removed and replaced with 100 µL of medium with different concentrations of CBD and CBDV, which were chosen on the basis of range-finding tests (as previously indicated). The plates were incubated at 37 °C for 72 h. In all experiments, the background control (wells with medium and without cells to obtain information about the LDH activity in the assay medium), low control (wells containing cells exposed only to the medium to determine spontaneous LDH release), high control (wells containing cells exposed to 2% Triton-X100 for 10 min before performing the assay to determine maximum LDH release), and solvent controls (2.5% methanol) were included. One hundred microlitres of supernatant was removed carefully from each well and transferred into corresponding wells in optically clear 96-well flat bottom microplates. One hundred microlitres of freshly prepared reaction mixture (Diaphorase (Catalyst)/NAD^+ /INT/sodium lactate) was added to each well and incubated for 30 min at 20 °C in darkness. Thus, NAD^+ was reduced to NADH/H^+ by the LDH-catalysed conversion of lactate to pyruvate. Then, the catalyst transferred H/H^+ from NADH/H^+ to the tetrazolium salt INT, which was reduced to formazan. To arrest the reaction, 50 µL/well of 1 N HCl was added. The spectrophotometric absorbance was determined at 492 nm. The absorbance of the background control wells was subtracted from all other values.
The results are reported as percentages of cytotoxicity, which is linked to the percentage of LDH released from damaged plasma membranes, calculated as follows:3 IC%=OD492sample-OD492lowcontrol/OD492highcontrol-OD492lowcontrol·100
IC50 values (concentrations of the sample to obtain 50% cytotoxicity) were calculated.
All results from five independent experiments are expressed as the IC50 or EC50 as determined by analysis with Prism 5 software (GraphPad Inc., San Diego, CA, USA) and nonlinear regression (log agonist vs. normalized response-variable slope) with a 95% confidence range. […]

Assay [6] deals with SZ95, normal-like sebocytes. The arrangement: method as in PMID 27094344. Particulars: 24 h of treatment; cited from earlier work.

Turning to `C=C(C)[C@@H]1CCC(C)=C[C@H]1c1c(O)cc(CCCCC)cc1O` [CBD, Cannabidiol], the “protein, DNA, RNA and peptidoglycan synthesis” value in assay [1] is recorded as “inhibited”. For the same molecule, in assay [2], the “DPPH scavenging capacity less than the capacity of Trolox” value worked out at 90%. The IC50 (usually the point on the concentration scale where inhibition reaches its midpoint) stood at 29.1 µM in assay [3] (ATCC13762, E. coli, 72 h of incubation, 95% confidence range in brackets); 10.3 µM in assay [4] (ATCC6538, S. aureus, 24 h of exposure, 95% confidence range in brackets); 4.86 µM in assay [4] (ATCC6538, S. aureus, 48 h of exposure, 95% confidence range in brackets); 1.84 µM in assay [4] (ATCC6538, S. aureus, 72 h of exposure, 95% confidence range in brackets); 118 µM in assay [5] (TelCOFS02MA, 72 h exposure, 95% confidence interval in brackets). Moreover, in assay [5] (TelCOFS02MA, 72 h), the “LOAEC LDH assay” value is recorded as 80 µM.

Regarding `C=C(C)[C@@H]1CCC(C)=C[C@H]1c1c(O)cc(CCC)cc1O` [CBDV, cannabidivarin], the “TEAC (Trolox equivalent antioxidant capacity), DPPH” value in assay [2] (EC50 Trolox/EC50 sample) turned out to be 0.09. Also, in assay [2], the “DPPH scavenging capacity less than the capacity of Trolox” value turned out to be 91%. Further, the IC50 turned out to be 35.5 µM in assay [3] (ATCC13762, 72 h); 30.8 µM in assay [4] (ATCC6538, 72 h); 152 µM in assay [5] (72 h). For the same molecule, the “LOAEC LDH assay” value in assay [5] (TelCOFS02MA, 72 h) stood at 88 µM. Moreover, the “concentration giving a significant decrease in cell viability (MTT)” value in assay [6] is recorded as 100 nM.
